Measured values published in ChEMBL document CHEMBL3885861, “Open TG-GATES”.

Species on record: Rattus norvegicus
Test: Open TG-GATES - Regimen: Daily Repeat
Assay type: toxicity, organism-based, Sprague-Dawley
Parameters: regimen Daily Repeat, gender Male, age 6 weeks
Details: in vivo, po, 0 mg/kg, route gavage, dose level Control; for APTT / Bas / Eos / Fbg / Hb / Ht / Lym / MCHC / MCV / Mono / Neu / PT / Plat / RBC / Ret / WBC: tissue Blood; for KIDNEY_L / KIDNEY_R / KIDNEY_TOTAL: tissue Kidney; for LIVER: tissue Liver; for ALP / ALT / AST / BUN / CRE / Ca / Cl / DBIL / GLC / IP / K / LDH / Na / PL / RALB / TBIL / TC / TG / TP / gamma-GTP: tissue Plasma

Compound `CS(=O)(=O)Nc1ccc([N+](=O)[O-])cc1Oc1ccccc1` [NIMESULIDE] has a TERMINAL_BW (72 h, time 3 day) of 220.1 g, an APTT (72 h, time 3 day) of 17.3 s and a Bas (72 h, time 3 day) of 0%. The Eos (72 h, time 3 day) was 1%, the Fbg (72 h, time 3 day) was 199.4 mg/dL and the Hb (72 h, time 3 day) was 13.5 g/dL. The Ht (72 h, time 3 day) was 39.9%, the Lym (72 h, time 3 day) was 78% and the MCHC (72 h, time 3 day) was 34%. For the same compound, the MCV (72 h, time 3 day) was 62.8 fL, the Mono (72 h, time 3 day) was 6.2% and the Neu (72 h, time 3 day) was 14.8%. For the same compound, the PT (72 h, time 3 day) was 11.7 s, the Plat (72 h, time 3 day) was 127.5 x10_4/uL and the RBC (72 h, time 3 day) was 635.6 x10_4/ul. For the same compound, the Ret (72 h, time 3 day) was 9.2%, the WBC (72 h, time 3 day) was 97.8 x10_2/uL and the KIDNEY_L (72 h, time 3 day) was 1 g. For the same compound, the KIDNEY_R (72 h, time 3 day) was 1 g, the KIDNEY_TOTAL (72 h, time 3 day) was 2 g and the LIVER (72 h, time 3 day) was 10.6 g. The ALP (72 h, time 3 day) was 996 IU/L, the ALT (72 h, time 3 day) was 36.8 IU/L and the AST (72 h, time 3 day) was 63.6 IU/L. The BUN (72 h, time 3 day) was 17.6 mg/dL, the CRE (72 h, time 3 day) was 0.6 mg/dL and the Ca (72 h, time 3 day) was 10.7 mg/dL. The Cl (72 h, time 3 day) was 105 meq/L, the DBIL (72 h, time 3 day) was 0.064 mg/dL and the GLC (72 h, time 3 day) was 203 mg/dL. For the same compound, the IP (72 h, time 3 day) was 7.5 mg/dL, the K (72 h, time 3 day) was 4.7 meq/L and the LDH (72 h, time 3 day) was 81.6 IU/L. It also gave a Na (72 h, time 3 day) of 139.4 meq/L, a PL (72 h, time 3 day) of 132.2 mg/dL and an RALB (72 h, time 3 day) of 4 g/dL. For the same compound, the TBIL (72 h, time 3 day) was 0.3 mg/dL, the TC (72 h, time 3 day) was 69 mg/dL and the TG (72 h, time 3 day) was 72.4 mg/dL. It also gave a TP (72 h, time 3 day) of 5.5 g/dL, a gamma-GTP (72 h, time 3 day) of 1.4 IU/L and a TERMINAL_BW ([…], time 7 day) of 249.3 g. It also gave a TERMINAL_BW ([…], time 14 day) of 309.7 g, a TERMINAL_BW ([…], time 28 day) of 405 g and an APTT ([…], time 7 day) of 18.3 s. For the same compound, the Bas ([…], time 7 day) was 0%, the Eos ([…], time 7 day) was 1% and the Fbg ([…], time 7 day) was 220 mg/dL. It also gave a Hb ([…], time 7 day) of 14.2 g/dL, a Ht ([…], time 7 day) of 41.6% and a Lym ([…], time 7 day) of 77.2%. The MCHC ([…], time 7 day) was 34.1%, the MCV ([…], time 7 day) was 64.8 fL and the Mono ([…], time 7 day) was 9.4%. The Neu ([…], time 7 day) was 12.6%, the PT ([…], time 7 day) was 11.3 s and the Plat ([…], time 7 day) was 117.6 x10_4/uL. The RBC ([…], time 7 day) was 642.4 x10_4/ul, the Ret ([…], time 7 day) was 7.2% and the WBC ([…], time 7 day) was 134.4 x10_2/uL. For the same compound, the APTT ([…], time 14 day) was 17.4 s, the Bas ([…], time 14 day) was 0% and the Eos ([…], time 14 day) was 1.2%. The Fbg ([…], time 14 day) was 234.2 mg/dL, the Hb ([…], time 14 day) was 14.7 g/dL and the Ht ([…], time 14 day) was 43.2%. For the same compound, the Lym ([…], time 14 day) was 79%, the MCHC ([…], time 14 day) was 34% and the MCV ([…], time 14 day) was 62.7 fL. For the same compound, the Mono ([…], time 14 day) was 6.2%, the Neu ([…], time 14 day) was 13.8% and the PT ([…], time 14 day) was 11.8 s. The Plat ([…], time 14 day) was 118.2 x10_4/uL, the RBC ([…], time 14 day) was 689.8 x10_4/ul and the Ret ([…], time 14 day) was 6.7%. The WBC ([…], time 14 day) was 118 x10_2/uL, the APTT ([…], time 28 day) was 17.4 s and the Bas ([…], time 28 day) was 0%. It also gave an Eos ([…], time 28 day) of 1.4%, a Fbg ([…], time 28 day) of 213.8 mg/dL and a Hb ([…], time 28 day) of 15.1 g/dL. For the same compound, the Ht ([…], time 28 day) was 44.6%, the Lym ([…], time 28 day) was 80.6% and the MCHC ([…], time 28 day) was 33.9%. The MCV ([…], time 28 day) was 58.6 fL, the Mono ([…], time 28 day) was 5.8% and the Neu ([…], time 28 day) was 12.4%. The PT ([…], time 28 day) was 11.7 s, the Plat ([…], time 28 day) was 126.5 x10_4/uL and the RBC ([…], time 28 day) was 761 x10_4/ul. It also gave a Ret ([…], time 28 day) of 2.7%, a WBC ([…], time 28 day) of 120.2 x10_2/uL and a KIDNEY_L ([…], time 7 day) of 1.1 g. It also gave a KIDNEY_R ([…], time 7 day) of 1.1 g, a KIDNEY_TOTAL ([…], time 7 day) of 2.2 g and a KIDNEY_L ([…], time 14 day) of 1.4 g. It also gave a KIDNEY_R ([…], time 14 day) of 1.3 g, a KIDNEY_TOTAL ([…], time 14 day) of 2.7 g and a KIDNEY_L ([…], time 28 day) of 1.4 g. It also gave a KIDNEY_R ([…], time 28 day) of 1.4 g, a KIDNEY_TOTAL ([…], time 28 day) of 2.8 g and an LIVER ([…], time 7 day) of 11.6 g. For the same compound, the LIVER ([…], time 14 day) was 14.5 g, the LIVER ([…], time 28 day) was 16.5 g and the ALP ([…], time 7 day) was 876.4 IU/L. It also gave an ALT ([…], time 7 day) of 35.4 IU/L, an AST ([…], time 7 day) of 64.2 IU/L and a BUN ([…], time 7 day) of 19.2 mg/dL. It also gave a CRE ([…], time 7 day) of 0.6 mg/dL, a Ca ([…], time 7 day) of 10.5 mg/dL and a Cl ([…], time 7 day) of 105.2 meq/L. For the same compound, the DBIL ([…], time 7 day) was 0.03 mg/dL, the GLC ([…], time 7 day) was 197.4 mg/dL and the IP ([…], time 7 day) was 7 mg/dL. The K ([…], time 7 day) was 5 meq/L, the LDH ([…], time 7 day) was 91.8 IU/L and the Na ([…], time 7 day) was 140.4 meq/L. For the same compound, the PL ([…], time 7 day) was 153.8 mg/dL, the RALB ([…], time 7 day) was 4 g/dL and the TBIL ([…], time 7 day) was 0.3 mg/dL. The TC ([…], time 7 day) was 79.2 mg/dL, the TG ([…], time 7 day) was 108.6 mg/dL and the TP ([…], time 7 day) was 5.7 g/dL. The gamma-GTP ([…], time 7 day) was 1.4 IU/L, the ALP ([…], time 14 day) was 898.6 IU/L and the ALT ([…], time 14 day) was 28.4 IU/L. For the same compound, the AST ([…], time 14 day) was 60 IU/L, the BUN ([…], time 14 day) was 17.4 mg/dL and the CRE ([…], time 14 day) was 0.5 mg/dL. The Ca ([…], time 14 day) was 10.7 mg/dL, the Cl ([…], time 14 day) was 106.4 meq/L and the DBIL ([…], time 14 day) was 0.002 mg/dL. It also gave a GLC ([…], time 14 day) of 199.4 mg/dL, an IP ([…], time 14 day) of 7.2 mg/dL and a K ([…], time 14 day) of 4.7 meq/L. For the same compound, the LDH ([…], time 14 day) was 54 IU/L, the Na ([…], time 14 day) was 140.6 meq/L and the PL ([…], time 14 day) was 141 mg/dL. The RALB ([…], time 14 day) was 4 g/dL, the TBIL ([…], time 14 day) was 0.3 mg/dL and the TC ([…], time 14 day) was 65.4 mg/dL. The TG ([…], time 14 day) was 124.4 mg/dL, the TP ([…], time 14 day) was 5.9 g/dL and the gamma-GTP ([…], time 14 day) was 1 IU/L. The ALP ([…], time 28 day) was 627.4 IU/L, the ALT ([…], time 28 day) was 29 IU/L and the AST ([…], time 28 day) was 61.8 IU/L. For the same compound, the BUN ([…], time 28 day) was 20.2 mg/dL, the CRE ([…], time 28 day) was 0.6 mg/dL and the Ca ([…], time 28 day) was 10.5 mg/dL. For the same compound, the Cl ([…], time 28 day) was 108.2 meq/L, the DBIL ([…], time 28 day) was 0.006 mg/dL and the GLC ([…], time 28 day) was 200 mg/dL. The IP ([…], time 28 day) was 6.6 mg/dL, the K ([…], time 28 day) was 4.7 meq/L and the LDH ([…], time 28 day) was 78 IU/L. For the same compound, the Na ([…], time 28 day) was 143.8 meq/L, the PL ([…], time 28 day) was 152 mg/dL and the RALB ([…], time 28 day) was 4.1 g/dL. For the same compound, the TBIL ([…], time 28 day) was 0.3 mg/dL, the TC ([…], time 28 day) was 73.2 mg/dL and the TG ([…], time 28 day) was 160.4 mg/dL. The TP ([…], time 28 day) was 6 g/dL and the gamma-GTP ([…], time 28 day) was 1.8 IU/L.
